# From patent publication US5962463A, “Methods of stimulating non-amyloidogenic processing of the amyloid precursor protein” (Massachusetts Institute Of Technology, priority 1997, dated 1999)
# Structures can show the parent of a compound that is named as a salt.
# Legend:
# [1] = molecular target: human brain serotonin 5HT2 receptor (Homo sapiens, UniProt P28223); details: for effect on receptor-activated APP release in response to serotonin: 5HT2 transfected cell lines, insert in FIG. 1C
# [2] = molecular target: T1, human brain serotonin 5HT1C receptor (Homo sapiens, UniProt P28335); details: for effect on receptor-activated APP release in response to dexnorfenfluramine: 5HT1C transfected cell lines, FIG. 3
# T1 sequence (P28335 33-458): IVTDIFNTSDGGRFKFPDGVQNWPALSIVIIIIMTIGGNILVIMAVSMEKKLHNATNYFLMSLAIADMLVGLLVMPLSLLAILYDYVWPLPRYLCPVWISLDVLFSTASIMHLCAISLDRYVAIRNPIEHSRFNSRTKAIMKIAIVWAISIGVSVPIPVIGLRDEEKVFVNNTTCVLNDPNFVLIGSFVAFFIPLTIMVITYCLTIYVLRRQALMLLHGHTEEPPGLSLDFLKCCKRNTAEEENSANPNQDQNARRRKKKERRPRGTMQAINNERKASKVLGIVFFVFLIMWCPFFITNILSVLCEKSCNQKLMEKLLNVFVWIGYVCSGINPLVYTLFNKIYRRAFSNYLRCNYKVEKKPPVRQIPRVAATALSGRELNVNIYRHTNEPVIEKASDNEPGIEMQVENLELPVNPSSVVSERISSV
# [3] = tested on: APP release; assay: APP release and cell-associated APP in serotonin receptor transfected 3T3 cells (receptor subtype not stated); type: cell-based, human
# [4] = taken orally by an individual; cited from earlier work
# [5] = tested on: nontransfected human 3T3 cells; assay: Basal release of APP fragments from wild-type (nontransfected) 3T3 cells; type: cell-based; details: wild-type cell lines, FIGS. 1A and 1C
# Description: Cultured human NIH 3T3 fibroblasts were utilized.
# Molecular weight standards were obtained from Amersham.
# [6] = tested on: human serotonin-1C surface receptor; assay: Phosphatidylinositol turnover in NIH 3T3 cells expressing the 5HT1C receptor; type: cell-based; details: NIH 3T3 cells expressing 5-HT1C, FIG. 2B
# Description: FIG. 2A is a graphic representation of concentration dependent APP^S release by NIH 3T3 cells transfected with and expressing the gene for the human serotonin-1C surface receptor in response to activation by dexnorfenfluramine. FIG. 2B is a graphic representation of phosphatidylinositol turnover in the same cells in response to activation by dexnorfenfluramine.
# In this instance, the agent interacts with and stimulates the serotonin surface receptor directly. […] Additional evidence is provided by the observation that turnover of phosphatidylinositol is stimulated in these cells by dexnorfenfluramine (FIG. 2B).
# [7] = tested on: slices of rat brain; details: 100 μM, incubated in slices of rat brain; cited from earlier work
# [8] = 10 μM serotonin, 5HT2 transfected cells, FIG. 1D
# [9] = stimulation with serotonin, Western blot
structure (smiles),measurement,setting,value
Cc1nc2sccn2c(=O)c1CCN1CCC(=C(c2ccc(F)cc2)c2ccc(F)cc2)CC1 [ritanserin],effect on receptor-activated APP release in response to serotonin,[1],blocked
same,effect on receptor-activated APP release in response to dexnorfenfluramine,[2],blocked
CNc1ccc2oc(C[C@H]3O[C@@]4(CC[C@H]3C)O[C@H]([C@H](C)C(=O)c3ccc[nH]3)[C@H](C)C[C@H]4C)nc2c1C(=O)O [A23187],ability to mimic the receptor-mediated stimulation of basal APP release,"[3]; calcium ionophore, increased intracellular calcium alone",failure
O=C(c1ccc(F)cc1)C1CCN(CCn2c(=O)[nH]c3ccccc3c2=O)CC1 [ketanserin],effect on receptor-activated APP release in response to serotonin,[1],blocked
same,effect on receptor-activated APP release in response to dexnorfenfluramine,[2],blocked
CN[C@@H]1C[C@H]2O[C@@](C)([C@@H]1OC)n1c3ccccc3c3c4c(c5c6ccccc6n2c5c31)C(=O)NC4 [staurosporine],effect on the serotonin effect on APP release,[3]; serotonin-stimulated transfected cells,inhibited
CCN[C@@H](C)Cc1cccc(C(F)(F)F)c1 [dexfenfluramine],amounts of dexfenfluramine and its de-ethylated metabolite dexnorfenfluramine appearing in the brain,[4],roughly equal amounts
CN1CCN2c3ccccc3Cc3ccccc3C2C1 (centres unmarked) [mianserin],effect on receptor-activated APP release in response to dexnorfenfluramine,[2],blocked
NCCc1c[nH]c2ccc(O)cc12 [serotonin],time to half-maximal stimulation of APP release,[1]; [8],30 to 40 min
same,time to maximum stimulation of APP release,[1]; [8],≤ 120 min
same,128 kD APP derivative secreted into the culture medium,[3]; [9],increase
same,abundance of cell-associated 115 kD APP,[3]; [9],remained unaffected
same,abundance of cell-associated 141 kD APP,[3]; [9],decreased
same,stimulation of basal release of APP fragments,[5],not stimulated
"C[C@H](N)Cc1cccc(C(F)(F)F)c1 [dexnorfenfluramine, (+) 1-[3-(trifluoromethyl)-phenyl] propan-2-amine hydrochloride]",turnover of phosphatidylinositol,[6],stimulated
same,increase in the release of serotonin,[7],6-7 fold
same,increase of basal APP release,"[2]; 5HT1C transfected cells, normalized to vehicle-treated controls",3 fold
